Assay results reported in PMC9839694, “Genetic basis of thiaminase I activity in a vertebrate, zebrafish Danio rerio” (Scientific Reports, 2023).
Structures can show the parent of a compound that is named as a salt.

Tests used:
[1] = target: T1, Paenibacillus thiaminolyticus thiaminase I (WP_087440168) (Paenibacillus thiaminolyticus, UniProt B0FJ10); experiment: in-gel thiaminase I activity staining (diazo-coupling) after electrophoresis; format: biochemical; conditions: 0.89 mM thiamine-HCl with a co-substrate, 25 mM sodium phosphate, 37 °C; recombinant positive control
T1 construct: gene bcmE; native enzyme in concentrated culture supernatant (strain 8188), and recombinant positive control from synthetic gene in pET52b in E. coli; 42 kDa monomer
T1 sequence (B0FJ10 31-409): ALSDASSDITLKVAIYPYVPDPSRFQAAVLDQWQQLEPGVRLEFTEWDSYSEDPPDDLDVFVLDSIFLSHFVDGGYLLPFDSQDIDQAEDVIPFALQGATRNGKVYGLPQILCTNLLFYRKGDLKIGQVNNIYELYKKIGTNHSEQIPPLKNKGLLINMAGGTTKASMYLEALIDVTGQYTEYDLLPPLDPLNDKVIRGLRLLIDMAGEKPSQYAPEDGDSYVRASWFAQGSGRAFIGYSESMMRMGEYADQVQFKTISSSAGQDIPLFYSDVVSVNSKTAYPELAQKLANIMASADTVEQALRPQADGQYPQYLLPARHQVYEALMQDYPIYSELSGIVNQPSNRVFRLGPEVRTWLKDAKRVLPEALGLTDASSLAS

[2] = target: T2, zebrafish TenA-like thiaminase I (NP_001314821.1) (Danio rerio, UniProt A0A0R4IDF2); experiment: as above; format: biochemical; conditions: 0.89 mM thiamine-HCl with a co-substrate, 25 mM sodium phosphate, 37 °C
T2 construct: gene teni.1; synthetic gene in pET52b, expressed in E. coli Rosetta 2(DE3)pLysS, soluble lysate fraction; oligomer 25 to 100 kDa native
T2 sequence (A0A0R4IDF2 22-223): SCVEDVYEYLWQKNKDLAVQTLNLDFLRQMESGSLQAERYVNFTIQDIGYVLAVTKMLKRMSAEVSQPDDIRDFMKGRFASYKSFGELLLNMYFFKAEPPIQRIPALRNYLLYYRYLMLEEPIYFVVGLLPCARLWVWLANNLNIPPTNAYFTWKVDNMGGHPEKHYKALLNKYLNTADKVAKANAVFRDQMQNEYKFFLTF

For Cc1ncc(C[n+]2csc(CCO)c2C)c(N)n1 [thiamine-HCl], the “in-gel thiaminase I activity staining (diazo-coupling) after electrophoresis” value [1] was “stained for activity showing thiamine degradation as clear areas” and the “in-gel thiaminase I activity staining (diazo-coupling) after electrophoresis” value [2] was “expressed in the soluble fraction of the protein extract and showed thiaminase I activity”.
